Test results reported in patent publication US7604939B2, “Methods of identifying active BRM expression-promoting HDAC inhibitors” (The Regents of the University of Michigan, priority 2005, dated 2009).
Like-named read-outs stand apart in the source and are kept apart here. Where a SMILES comes first, the peptide text is derived from it. [ ]: non-standard residue; d: D form. Aoe = N[C@@H](CCCCCC(=O)[C@@H]1CO1)C(=O)O

Legend:
[1] = test system: p16 expression; experiment: p16 expression by semi-quantitative RT-PCR in control cell lines; assay type: cell-based, human; details: 5uM on three consecutive days; H23 and H441 cell lines
[2] = target: HDAC3 (Homo sapiens, UniProt O15379); details: cited from earlier work; for IC50: read-out: IC50 HDAC3
Sequence of HDAC3 (O15379 whole entry): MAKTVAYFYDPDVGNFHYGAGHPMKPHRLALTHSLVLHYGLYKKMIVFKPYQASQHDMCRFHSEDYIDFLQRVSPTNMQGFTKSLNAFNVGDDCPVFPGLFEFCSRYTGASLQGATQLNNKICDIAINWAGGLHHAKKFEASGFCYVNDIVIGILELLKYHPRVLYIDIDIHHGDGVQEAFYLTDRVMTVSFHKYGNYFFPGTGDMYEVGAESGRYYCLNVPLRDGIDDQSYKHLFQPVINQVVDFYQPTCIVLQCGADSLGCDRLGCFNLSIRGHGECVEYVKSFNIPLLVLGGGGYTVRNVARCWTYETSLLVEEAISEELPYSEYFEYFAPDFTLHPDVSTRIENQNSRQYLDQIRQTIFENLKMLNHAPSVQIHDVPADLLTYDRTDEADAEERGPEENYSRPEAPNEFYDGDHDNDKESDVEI
Sequence of HDAC3 (Q9Y618 395-489 partner limits assumed): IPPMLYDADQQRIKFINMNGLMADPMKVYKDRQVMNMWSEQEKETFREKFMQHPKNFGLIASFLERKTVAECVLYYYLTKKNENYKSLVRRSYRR

[3] = target: T1, HDAC6 (Homo sapiens, UniProt Q9UBN7); details: Class 2 HDAC; cited from earlier work
T1 sequence (Q9UBN7 1-1215): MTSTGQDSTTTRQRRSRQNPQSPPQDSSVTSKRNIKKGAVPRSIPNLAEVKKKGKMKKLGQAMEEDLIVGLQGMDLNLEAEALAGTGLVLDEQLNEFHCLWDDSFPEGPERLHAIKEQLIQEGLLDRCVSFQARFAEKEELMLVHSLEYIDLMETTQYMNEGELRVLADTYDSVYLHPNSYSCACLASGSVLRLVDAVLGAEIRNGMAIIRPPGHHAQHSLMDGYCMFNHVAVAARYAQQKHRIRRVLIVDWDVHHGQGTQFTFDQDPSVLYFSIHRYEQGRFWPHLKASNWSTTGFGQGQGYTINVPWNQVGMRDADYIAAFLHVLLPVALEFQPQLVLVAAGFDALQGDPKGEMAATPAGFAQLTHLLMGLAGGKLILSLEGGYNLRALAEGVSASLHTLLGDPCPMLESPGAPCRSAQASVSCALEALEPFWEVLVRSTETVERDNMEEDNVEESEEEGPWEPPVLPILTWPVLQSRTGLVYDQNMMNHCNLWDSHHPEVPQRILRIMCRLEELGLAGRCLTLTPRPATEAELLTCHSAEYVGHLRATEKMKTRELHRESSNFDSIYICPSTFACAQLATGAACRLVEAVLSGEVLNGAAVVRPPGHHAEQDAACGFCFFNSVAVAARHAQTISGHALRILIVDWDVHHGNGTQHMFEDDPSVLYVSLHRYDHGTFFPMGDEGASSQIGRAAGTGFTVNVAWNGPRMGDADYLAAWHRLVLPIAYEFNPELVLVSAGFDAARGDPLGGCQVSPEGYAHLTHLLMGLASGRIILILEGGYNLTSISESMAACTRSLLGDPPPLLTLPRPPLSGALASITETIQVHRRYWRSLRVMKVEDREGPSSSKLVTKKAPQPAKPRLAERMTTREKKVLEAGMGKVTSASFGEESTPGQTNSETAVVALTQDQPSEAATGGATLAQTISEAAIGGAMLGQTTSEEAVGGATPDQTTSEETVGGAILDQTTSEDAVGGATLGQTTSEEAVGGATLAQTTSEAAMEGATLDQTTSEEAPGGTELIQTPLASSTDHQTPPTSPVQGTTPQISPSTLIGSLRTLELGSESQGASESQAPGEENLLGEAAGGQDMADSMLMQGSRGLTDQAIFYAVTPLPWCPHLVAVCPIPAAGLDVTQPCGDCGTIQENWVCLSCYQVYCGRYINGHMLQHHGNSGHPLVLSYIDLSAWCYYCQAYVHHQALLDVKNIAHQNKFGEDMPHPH

[4] = target: HDAC4 (Homo sapiens, UniProt P56524); details: Class 2 HDAC; cited from earlier work
Sequence of HDAC4 (P56524 whole entry): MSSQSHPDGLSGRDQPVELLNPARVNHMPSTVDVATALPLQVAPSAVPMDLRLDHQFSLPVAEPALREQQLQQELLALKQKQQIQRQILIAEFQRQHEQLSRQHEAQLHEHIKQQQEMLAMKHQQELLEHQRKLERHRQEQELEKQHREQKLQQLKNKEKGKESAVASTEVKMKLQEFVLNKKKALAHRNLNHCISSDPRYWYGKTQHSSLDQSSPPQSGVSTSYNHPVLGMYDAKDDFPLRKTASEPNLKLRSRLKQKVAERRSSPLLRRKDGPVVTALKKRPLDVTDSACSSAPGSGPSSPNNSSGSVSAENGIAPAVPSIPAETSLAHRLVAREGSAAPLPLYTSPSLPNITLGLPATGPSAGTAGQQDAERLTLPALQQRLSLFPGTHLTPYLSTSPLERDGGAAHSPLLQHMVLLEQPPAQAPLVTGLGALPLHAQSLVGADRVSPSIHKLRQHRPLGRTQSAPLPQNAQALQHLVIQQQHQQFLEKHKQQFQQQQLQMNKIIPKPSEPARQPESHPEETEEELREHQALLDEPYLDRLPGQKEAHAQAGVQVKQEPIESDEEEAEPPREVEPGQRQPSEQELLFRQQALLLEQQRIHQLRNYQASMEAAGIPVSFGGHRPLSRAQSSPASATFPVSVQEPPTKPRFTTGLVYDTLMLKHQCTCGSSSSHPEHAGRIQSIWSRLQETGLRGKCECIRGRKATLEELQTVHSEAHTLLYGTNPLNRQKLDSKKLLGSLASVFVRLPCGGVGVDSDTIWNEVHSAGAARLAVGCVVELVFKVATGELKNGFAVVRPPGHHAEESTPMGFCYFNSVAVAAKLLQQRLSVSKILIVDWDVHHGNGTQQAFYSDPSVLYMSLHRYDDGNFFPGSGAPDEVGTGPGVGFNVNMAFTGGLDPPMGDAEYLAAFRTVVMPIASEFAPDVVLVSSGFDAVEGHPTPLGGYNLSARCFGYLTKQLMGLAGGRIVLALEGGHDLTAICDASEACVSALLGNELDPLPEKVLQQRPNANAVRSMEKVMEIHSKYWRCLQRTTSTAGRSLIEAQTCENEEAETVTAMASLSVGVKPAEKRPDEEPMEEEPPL

[5] = target: HDAC1 (Homo sapiens, UniProt Q13547); details: cited from earlier work; for Sensitivity of HDAC1 to the inhibitor: Class 1 HDAC
Sequence of HDAC1 (Q13547 whole entry): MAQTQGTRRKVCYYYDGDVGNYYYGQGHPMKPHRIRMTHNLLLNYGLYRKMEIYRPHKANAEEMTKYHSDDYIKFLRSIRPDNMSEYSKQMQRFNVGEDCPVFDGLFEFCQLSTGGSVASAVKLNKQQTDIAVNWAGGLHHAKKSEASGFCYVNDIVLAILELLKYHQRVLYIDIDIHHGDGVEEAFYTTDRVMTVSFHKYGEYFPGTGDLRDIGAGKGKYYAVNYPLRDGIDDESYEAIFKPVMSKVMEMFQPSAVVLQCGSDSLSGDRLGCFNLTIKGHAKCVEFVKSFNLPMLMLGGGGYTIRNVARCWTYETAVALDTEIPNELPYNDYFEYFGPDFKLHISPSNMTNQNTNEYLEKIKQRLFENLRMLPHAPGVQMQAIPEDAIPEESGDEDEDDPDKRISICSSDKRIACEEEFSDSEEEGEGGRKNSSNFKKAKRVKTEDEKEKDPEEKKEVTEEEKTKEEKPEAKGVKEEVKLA

[6] = test system: H23 and SW13 cell lines; experiment: Toxicity to BRG1/BRM-deficient cell lines; assay type: cell-based, human; details: most pronounced in the H23 and SW13 cell lines
[7] = target: T2, HDAC10 (Homo sapiens, UniProt Q969S8); details: Class 2 HDAC; cited from earlier work
T2 sequence (Q969S8 1-669): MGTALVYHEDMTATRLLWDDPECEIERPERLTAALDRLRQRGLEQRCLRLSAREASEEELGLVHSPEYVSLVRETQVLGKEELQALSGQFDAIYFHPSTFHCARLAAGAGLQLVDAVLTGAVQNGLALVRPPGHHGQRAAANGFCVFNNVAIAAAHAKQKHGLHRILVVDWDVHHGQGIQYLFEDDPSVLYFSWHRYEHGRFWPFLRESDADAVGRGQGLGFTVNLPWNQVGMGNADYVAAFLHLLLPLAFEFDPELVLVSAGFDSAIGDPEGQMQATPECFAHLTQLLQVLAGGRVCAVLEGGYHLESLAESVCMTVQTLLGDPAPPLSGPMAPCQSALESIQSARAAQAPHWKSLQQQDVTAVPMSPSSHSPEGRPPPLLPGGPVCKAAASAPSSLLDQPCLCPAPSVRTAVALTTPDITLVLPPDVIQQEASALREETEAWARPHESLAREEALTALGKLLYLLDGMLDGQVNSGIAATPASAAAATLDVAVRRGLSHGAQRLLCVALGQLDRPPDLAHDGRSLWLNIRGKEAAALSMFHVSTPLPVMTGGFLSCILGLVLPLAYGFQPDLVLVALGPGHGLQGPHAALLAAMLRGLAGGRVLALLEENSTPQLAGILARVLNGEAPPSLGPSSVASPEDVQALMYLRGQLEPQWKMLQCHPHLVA

[8] = target: HDAC5 (Homo sapiens, UniProt Q9UQL6); details: Class 2 HDAC; cited from earlier work
Sequence of HDAC5 (Q9UQL6 whole entry): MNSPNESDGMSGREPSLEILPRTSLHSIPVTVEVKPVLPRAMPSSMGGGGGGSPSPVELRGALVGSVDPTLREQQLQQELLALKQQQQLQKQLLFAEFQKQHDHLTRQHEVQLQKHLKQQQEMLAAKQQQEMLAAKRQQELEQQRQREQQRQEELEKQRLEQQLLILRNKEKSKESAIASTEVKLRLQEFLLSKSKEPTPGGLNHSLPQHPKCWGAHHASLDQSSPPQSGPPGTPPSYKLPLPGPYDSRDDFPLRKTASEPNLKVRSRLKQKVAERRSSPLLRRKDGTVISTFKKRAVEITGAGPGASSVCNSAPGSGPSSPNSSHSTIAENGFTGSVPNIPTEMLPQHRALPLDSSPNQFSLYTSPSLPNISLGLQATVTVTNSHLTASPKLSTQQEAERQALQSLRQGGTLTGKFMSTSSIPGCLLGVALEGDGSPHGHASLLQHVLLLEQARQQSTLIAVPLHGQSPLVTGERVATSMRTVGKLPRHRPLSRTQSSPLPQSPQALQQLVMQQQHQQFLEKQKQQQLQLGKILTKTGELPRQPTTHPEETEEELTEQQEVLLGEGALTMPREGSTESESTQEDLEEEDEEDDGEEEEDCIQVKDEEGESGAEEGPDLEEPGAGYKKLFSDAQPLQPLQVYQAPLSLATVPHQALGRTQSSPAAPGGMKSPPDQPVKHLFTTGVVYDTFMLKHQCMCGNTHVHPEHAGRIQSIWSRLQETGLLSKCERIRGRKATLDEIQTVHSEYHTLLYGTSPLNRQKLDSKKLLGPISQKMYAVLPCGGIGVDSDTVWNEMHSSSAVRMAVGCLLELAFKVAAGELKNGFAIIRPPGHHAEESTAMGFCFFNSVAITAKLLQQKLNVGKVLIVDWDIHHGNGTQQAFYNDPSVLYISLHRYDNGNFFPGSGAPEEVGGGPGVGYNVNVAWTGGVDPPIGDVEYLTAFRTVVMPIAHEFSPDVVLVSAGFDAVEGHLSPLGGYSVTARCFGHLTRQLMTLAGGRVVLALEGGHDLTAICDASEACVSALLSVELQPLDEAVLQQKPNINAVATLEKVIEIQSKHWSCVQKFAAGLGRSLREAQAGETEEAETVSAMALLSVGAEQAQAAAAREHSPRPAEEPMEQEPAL

[9] = target: HDAC9 (Homo sapiens, UniProt Q9UKV0); details: Class 2 HDAC; cited from earlier work
Sequence of HDAC9 (Q9UKV0 whole entry): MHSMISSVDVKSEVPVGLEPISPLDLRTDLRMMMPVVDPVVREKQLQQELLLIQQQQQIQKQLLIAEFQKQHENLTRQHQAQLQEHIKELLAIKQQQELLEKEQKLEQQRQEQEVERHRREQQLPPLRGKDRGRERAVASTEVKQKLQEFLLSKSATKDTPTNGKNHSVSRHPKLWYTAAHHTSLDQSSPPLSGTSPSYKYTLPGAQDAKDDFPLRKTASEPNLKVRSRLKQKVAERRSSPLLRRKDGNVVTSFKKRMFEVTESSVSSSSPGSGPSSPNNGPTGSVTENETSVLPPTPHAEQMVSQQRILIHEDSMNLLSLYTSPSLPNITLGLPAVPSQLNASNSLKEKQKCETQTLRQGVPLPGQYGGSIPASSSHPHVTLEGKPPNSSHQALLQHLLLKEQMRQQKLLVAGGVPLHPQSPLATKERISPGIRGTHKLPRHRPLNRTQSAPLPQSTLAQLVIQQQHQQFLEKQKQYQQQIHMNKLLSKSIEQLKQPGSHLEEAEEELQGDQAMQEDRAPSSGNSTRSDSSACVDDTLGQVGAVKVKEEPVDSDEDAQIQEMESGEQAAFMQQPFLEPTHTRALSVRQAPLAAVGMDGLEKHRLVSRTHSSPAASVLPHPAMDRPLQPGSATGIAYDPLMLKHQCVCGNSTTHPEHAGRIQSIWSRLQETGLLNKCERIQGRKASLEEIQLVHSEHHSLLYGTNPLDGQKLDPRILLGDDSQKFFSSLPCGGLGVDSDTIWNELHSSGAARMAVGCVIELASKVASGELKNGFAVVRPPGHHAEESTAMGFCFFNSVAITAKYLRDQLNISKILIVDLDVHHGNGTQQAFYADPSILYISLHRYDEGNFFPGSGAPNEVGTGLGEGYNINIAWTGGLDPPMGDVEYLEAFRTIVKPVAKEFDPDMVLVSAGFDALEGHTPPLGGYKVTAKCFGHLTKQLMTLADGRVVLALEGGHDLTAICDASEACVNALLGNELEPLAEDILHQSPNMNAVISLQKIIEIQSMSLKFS

[10] = test system: Class 3 HDACs; details: cited from earlier work
[11] = target: T3, HDAC8 (Homo sapiens, UniProt Q9BY41); details: Class 1 HDAC; cited from earlier work
T3 sequence (Q9BY41 1-377): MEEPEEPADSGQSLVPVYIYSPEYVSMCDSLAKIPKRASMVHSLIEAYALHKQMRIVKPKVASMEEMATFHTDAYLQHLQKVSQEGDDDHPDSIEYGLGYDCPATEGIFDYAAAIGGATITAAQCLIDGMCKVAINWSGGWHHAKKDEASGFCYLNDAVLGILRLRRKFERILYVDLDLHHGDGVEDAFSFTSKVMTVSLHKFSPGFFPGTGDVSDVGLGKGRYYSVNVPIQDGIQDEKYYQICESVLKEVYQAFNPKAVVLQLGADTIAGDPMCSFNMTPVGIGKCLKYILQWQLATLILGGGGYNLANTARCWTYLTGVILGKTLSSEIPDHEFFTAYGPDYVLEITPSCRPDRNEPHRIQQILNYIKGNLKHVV

[12] = target: HDAC2 (Homo sapiens, UniProt Q92769); details: Class 1 HDAC; cited from earlier work
Sequence of HDAC2 (Q92769 whole entry): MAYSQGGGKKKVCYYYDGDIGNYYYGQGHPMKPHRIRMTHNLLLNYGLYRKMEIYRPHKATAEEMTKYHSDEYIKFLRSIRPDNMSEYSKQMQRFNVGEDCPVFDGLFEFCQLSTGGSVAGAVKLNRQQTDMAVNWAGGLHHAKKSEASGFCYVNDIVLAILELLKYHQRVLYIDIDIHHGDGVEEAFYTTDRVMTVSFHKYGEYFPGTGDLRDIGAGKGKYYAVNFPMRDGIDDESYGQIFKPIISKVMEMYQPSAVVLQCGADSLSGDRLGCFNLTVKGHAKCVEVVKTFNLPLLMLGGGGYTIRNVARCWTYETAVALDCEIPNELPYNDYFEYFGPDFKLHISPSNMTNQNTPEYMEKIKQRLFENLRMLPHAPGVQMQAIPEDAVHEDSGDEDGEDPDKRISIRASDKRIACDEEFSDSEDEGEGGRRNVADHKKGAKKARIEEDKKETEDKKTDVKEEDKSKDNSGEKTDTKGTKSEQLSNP

[13] = test system: BRM expression; experiment: Time course of BRM expression in SW13 cells with butyrate and after its removal; assay type: cell-based, human
Protocol: Cells were treated daily with sodium butyrate (5 mM). Total protein was extracted at 4, 12, 24, 36, […], and 72 hours after the first dosage. Upregulation of BRM with butyrate treatment was detected after 12 hours and reached a plateau between 24 and 48 hours. GAPDH was the loading control. […] Cells were treated with sodium butyrate at a final concentration of 5 mM for three consecutive days. On the fourth day, the medium was changed and cells were harvested at various time points for protein detection. BRM protein levels declined and returned to baseline after 4-5 days. (NaBut=sodium butyrate, un=untreated).
This Example describes an analysis of the temporal effects of HDAC inhibitors on BRM re-expression. In partciular, to understand how HDAC inhibitors affected BRM expression, the time course at which BRM expression in SW13 cells was induced by continued exposure to butyrate was determined. The upregulation of BRM expression was detected by western blot analysis at 12 hours and reached a plateau at 24 hours. Little change in BRM expression occurred with continued treatment for an additional 48 hours (FIG. 3A). This process was reversible, as BRM expression returned to pretreatment levels after removal of sodium butyrate. To further characterize this effect, SW13 cells were treated with butyrate for 72 hours, sodium butyrate was removed, and BRM levels were measured by western blotting from 0 to 6 days. The BRM protein levels remained elevated for 72 hours and returned to near baseline levels at 96 hours (FIG. 3B). In parallel with BRM protein, the BRM mRNA level determined by quantative RT-PCR, also remained elevated for 3 days, returning to baseline level by 4 days. These findings indicate the changes in BRM protein levels paralleled the changes in the BRM mRNA levels.

[14] = test system: BRM expression; experiment: BRM mRNA (RT-PCR) and protein (western blotting) expression in BRG1/BRM-deficient cell lines after treatment
Text: This example describes the treatment of cells lines with undetectable BRG1 and BRM protein expression with various HDAC inhibitors or 5-aza-deoxycytidine (5-azaCdR). […] This upregulation effect was also examined in the six other BRG1/BRM-deficient cell lines, using RT-PCR.

[15] = SW13, continued exposure, 5 mM daily (FIG. 3A)
[16] = SW13, treated 72 hours, then removed
[17] = SW13, treated 72 hours, then removed (FIG. 3B)

Nc1ncn([C@H]2C[C@H](O)[C@@H](CO)O2)c(=O)n1 [5azaCytD, 5-aza-deoxycytidine]
Silencing of p16, semi-quantitative RT-PCR [1]: reversed

C/C=C1\NC(=O)[C@H]2CSSCC/C=C/[C@H](CC(=O)N[C@H](C(C)C)C(=O)N2)OC(=O)[C@H](C(C)C)NC1=O [FR901228]
Sensitivity of HDAC3 to the inhibitor ([2]; Class 1 HDAC): Yes
Sensitivity of HDAC6 to the inhibitor [3]: weak
Sensitivity of HDAC4 to the inhibitor [4]: weak
Sensitivity of HDAC1 to the inhibitor [5]: Yes

Nc1ccccc1NC(=O)c1ccc(CNC(=O)OCc2cccnc2)cc1 [MS-275]
Toxicity to cell lines compared to butyrate [6]: increased toxicity

O=C1N[C@@H](Cc2ccccc2)C(=O)N2CCC[C@@H]2C(=O)N[C@@H](CCCCCC(=O)[C@@H]2CO2)C(=O)N[C@H]1Cc1ccccc1 [Trapoxin] (cyclo(FF[dP][Aoe]))
Sensitivity of HDAC3 to the inhibitor ([2]; Class 1 HDAC): Yes
IC50 [2]: ~0.1 µM
Sensitivity of HDAC10 to the inhibitor [7]: No
Sensitivity of HDAC6 to the inhibitor [3]: No

CC(/C=C/C(=O)NO)=C\[C@@H](C)C(=O)c1ccc(N(C)C)cc1 [Trichostatin A, trichostatin A]
Sensitivity of HDAC10 to the inhibitor [7]: Yes
Sensitivity of HDAC6 to the inhibitor [3]: Yes
Sensitivity of HDAC4 to the inhibitor [4]: Yes
Sensitivity of HDAC5 to the inhibitor [8]: Yes
Sensitivity of HDAC9 to the inhibitor [9]: Yes
Sensitivity of Class 3 HDACs to the inhibitor [10]: Resistance
Sensitivity of HDAC1 to the inhibitor [5]: Yes
Sensitivity of HDAC8 to the inhibitor [11]: Yes

CCCC(CCC)C(=O)O [Valpoic Acid, valproic acid]
Sensitivity of HDAC2 to the inhibitor [12]: yes
Sensitivity of HDAC1 to the inhibitor [5]: yes

CCCC(=O)[O-].[Na+] [sodium butyrate]
Sensitivity of HDAC3 to the inhibitor [2]: Yes
IC50 [2]: ~300 µM
Sensitivity of HDAC10 to the inhibitor [7]: No
Sensitivity of HDAC6 to the inhibitor [3]: No
Time at which BRM protein levels returned to baseline after medium change ([13]; 5 mM for three consecutive days, medium changed on fourth day (FIG. 3B)): 4 to 5 days
Change in BRM expression with continued treatment for an additional 48 hours ([13]; SW13, after plateau (FIG. 3A)): Little change
Time at which BRM protein expression reached a plateau, western blot [13, 15]: 24 h
Time at which upregulation of BRM protein was detected, western blot [13, 15]: 12 h
Time BRM mRNA level remained elevated after removal, quantitative RT-PCR [13, 16]: 3 days
Time at which BRM mRNA returned to baseline after removal, quantitative RT-PCR [13, 16]: ≤ 4 days
Time BRM protein levels remained elevated after removal [13, 17]: 72 h
Time at which BRM protein returned to near baseline after removal [13, 17]: 96 h
Induction of BRM, RT-PCR ([14]; Panc-1 and H513 cell lines, butyrate treatment): failed to demonstrate an appreciable induction
Number of the ten BRG1/BRM-deficient cell lines showing BRM transcript re-expression, RT-PCR ([14]; after butyrate treatment, of ten cell lines): eight
Upregulation of BRM, cyber-green quantitation PCR ([14]; butyrate treatment, responding BRG1/BRM-deficient cell lines): 8-20 fold
Sensitivity of Class 3 HDACs to the inhibitor [10]: Resistance
Sensitivity of HDAC1 to the inhibitor [5]: Yes
IC50 [5]: ~300 µM
Sensitivity of HDAC8 to the inhibitor [11]: Yes
